From patent US20220387339A1, “SUPERFINE COMPOUNDS AND PRODUCTION THEREOF” (Esolate Ltd, priority 2019, published 2022)
≈ marks a conversion by molar mass, not a printed value.

How the values were obtained:
[1] = Solubility of cyclodextrins in supercritical CO2 under process conditions (Example 3); conditions: for solubility in supercritical CO2: experimental conditions: 40° C., 3,500 psi
[2] = Relative bioavailability test: CBD concentration in water by HPLC-UV (Example 6); type: physicochemical; conditions: after 32 hours elapsed time, 0.45 μm filtered
Method: Relative bioavailability tests of the cannabinoid ultrafine nanoparticles obtained as described in Example 4 (test samples) as compared to cannabinoid isolates in water (control samples) were performed using a high performance liquid chromatography (HPLC) separator equipped with a UV detector to determine the concentration of CBD in each sample. Control samples were prepared by filtering 1 ml of each sample through a 0.45 μm filter into a 2 ml HPLC vial and 1 ml of methanol (MeOH) was added to each sample vial. HPLC mobile phase was comprised of 65% acetonitrile and 35% water. A flow rate of 1 ml per minute led to the elution of CBD after approximately 4.5 minutes.
A percentage area was measured after 32 hours elapsed time, which represents the amount of CBD in each sample relative to the background signal created by the MeOH in each sample.

[3] = isolates currently available; cited from earlier work
[4] = Visual solubility in simulated stomach conditions (Example 5); type: physicochemical
Method: Bioavailability of the cannabinoid ultrafine nanoparticles obtained as described in Example 4 was assessed by visually evaluating the solubility of the fine nanoparticles in simulated stomach conditions. 0.5 g of NaCl was added to a 0.155 M solution of HCl in water to replicate stomach acidic conditions. 10 mg of the fine nanoparticles, 10 mg of the isolates in crystalline form, and 10 mg of the distillates were each placed in vials containing 10 ml of the acidic solution and incubated for 10 hours at 37° C. At the end of the 10-hour period, only minimal solubility of the preparations was observed. Additional 10 ml of the acidic solution were added, and the mixtures were incubated for 10 more hours at 37° C. At the end of the 20-hour period, the cannabinoid nanoparticles dissolved in the acidic solution.

[5] = Visual solubility in water before and after processing (FIGS. 3-4); type: physicochemical; conditions: FIGS. 3 and 4
From the text: The crystals are insoluble in acid and in water.

CC(=O)OC[C@H]1O[C@@H]2O[C@H]3[C@H](OC(C)=O)[C@@H](OC(C)=O)[C@@H](O[C@H]4[C@H](OC(C)=O)[C@@H](OC(C)=O)[C@@H](O[C@H]5[C@H](OC(C)=O)[C@@H](OC(C)=O)[C@@H](O[C@H]6[C@H](OC(C)=O)[C@@H](OC(C)=O)[C@@H](O[C@H]7[C@H](OC(C)=O)[C@@H](OC(C)=O)[C@@H](O[C@H]8[C@H](OC(C)=O)[C@@H](OC(C)=O)[C@@H](O[C@H]1[C@H](OC(C)=O)[C@H]2OC(C)=O)O[C@@H]8COC(C)=O)O[C@@H]7COC(C)=O)O[C@@H]6COC(C)=O)O[C@@H]5COC(C)=O)O[C@@H]4COC(C)=O)O[C@@H]3COC(C)=O [ABCD, β-cyclodextrin heneicosaacetate]
solubility in supercritical CO2 [1]: 1.3 wt. %

C=C(C)[C@@H]1CCC(C)=C[C@H]1c1c(O)cc(CCCCC)cc1O [CBD isolate, cannabidiol]
percentage area (amount of CBD relative to MeOH background signal) [2]: 0.7706%
solubility in water [3]: 12.6 µg/mL (≈ 40.1 µM)
solubility in acidic solution after 20 hours (visual) ([4]; 10 mg in 20 ml 0.155 M HCl with NaCl, 37° C., 20 hours): complete insolubility
solubility in acid (visual) ([4]; acidic solvent resembling stomach conditions, FIGS. 3 and 5): insoluble
solubility in water (visual) [5]: insoluble

Cyclodextrin
solubility under the process conditions (supercritical CO2) ([1]; 40° C., 3,500 psi): insoluble

α-cyclodextrin exadeacetate [AACD]
solubility in supercritical CO2 [1]: 1.1 wt. %
